For data set [1], the system named is Ras. Kind of data set: Soluble/cytoplasmic Ras level in frontal cortex of alpha-synuclein transgenic mice (immunoblot). Format: in vivo, mouse. The following applies: 0.09 mg/kg or 9 mg/kg b.i.d., 3 months. As for the experimental part: The level of inhibition of Ras in brain by LNK-754-TS, dosed at an efficacious dose for efficacy in animal models of proteinopathy-dependent neurodegeneration, was investigated. Alpha-synuclein transgenic mice were treated for 3 months b.i.d. with vehicle or LNK-754-TS at 0.09 mg/kg or 9 mg/kg. Cortical tissue was extracted and homogenized, followed by isolation of soluble/cytosolic proteins in detergent-free buffer (50 mM Tris-HCl pH 7.4, 140 mM NaCl, 2 mM EDTA, Protease inhibitor cocktail) by centrifugation. 15 micrograms of protein lysate was analyzed per lane of SDS-PAGE gel, and immunoblotted for Ras and actin (FIG. 6). Densitometry was used to quantify the Ras/actin ratio for each sample, and results were plotted (FIG. 7). […] This contrasts with what is observed in xenograft cancer models, where inhibition of Ras farnesylation by high dose FTIs is directly correlated with efficacy (FIG. 3 and Example 3).

The test system of data set [2] is 3T3 H-ras (61L) xenograft. The following applies: BID for 10 days; cited from earlier work.
For data set [3], the system named is APP/PS1 transgenic mice. The data set can be described thus: Morris water maze in APP/PS1 transgenic mice. Format: in vivo, mouse. The following applies: 0.9 mg/kg once every 24 hours. As for the experimental part: (§1) Animals and treatments: Male and female human WT alpha-synuclein over-expressing transgenic mice^32 at 6 months of age were given vehicle (10% beta-cyclodextrin) or LNK-754-TS (0.09, 0.9 and 9 mg/kg) per oral gavage twice daily for 3 months or animals at 7 months of age were given vehicle (2.5% beta-cyclodextrin) or LNK-754-TS (2 mg/kg) once every three days for 3 months. Male and female TAU transgenic mice expressing TAU441 bearing the missense mutations V337M^50 and R406W under the control of the murine Thy-1 promoter with a CB6xC57BL/6 background were 5 months old at the time when the oral treatment for three months with LNK-754-TS (0.9 and 0.09 mg/kg) as well as vehicle (2.5% beta-cyclodextrin) was started. Female human APP/PS1 (APP (London V7171)/PS1(A246E)) over-expressing transgenic mice were treated with LNK-754-TS (0.9 mg/kg) or vehicle (2.5% beta-cyclodextrin) for 2 months or 12 days.
Morris water maze (MWM) analysis of cognitive performance: In APP/PS1 transgenic animals, swimming behavior in a Morris Water Maze was videotaped and analyzed (Ethovision, Noldus, Wageningen, Netherlands). For mice, a place navigation test was used to locate the hidden platform in five blocks of three trials over three consecutive days. […] The time each mouse needed for location of the platform was measured. […] The time and path length each rat needed to locate the platform was measured. […]

The subject of data set [4] is α-synuclein. Kind of data set: Masliah D-line human WT α-synuclein transgenic mouse, α-synuclein immunoreactivity / ELISA. In kind it is in vivo. As to conditions: for α-synuclein deposition in cortex and hippocampus: three months (FIG. 9a); for number of α-synuclein positive neurons in the brain: higher-dose trial (FIG. 2A). As to the method:
as §1
Immunohistochemistry and quantification of stained cells: For evaluation of α-synuclein immunoreactivity (IR), 5 sagittal cryo-cut sections (10 μm slice thickness) from five different layers were used for counting of IR cells in the cortex and hippocampus. Brain sections were stained with a monoclonal human α-synuclein specific antibody (Alexis®; Cat# 804-258-L001; dilution 1:5), followed by a secondary Ab Cy 2-Goat Anti-Rat (Jackson ImmunoResearch®; dilution 1:200). IR positive cells were quantified using specialized image analysis software (Image Pro Plus, version 4.5.1.29). For Tau transgenic animals, 5 μm thick coronal paraffin sections were stained with the monoclonal mouse anti-human TAU-antibodies (AT180—1:100; HT—1:500) and visualized using an anti-mouse Cy3 secondary antibody (1:500, Jackson laboratories®). Images were evaluated with ImageProPlus (version 6.2) image analysis software. For APP/PS1 transgenic animals sagittal hemisections (40 μm) were collected and processed for Aβ immunohistochemistry using an 6E10 antibody, Thioflavin-S staining Primary antibodies were detected by the ABC method.
ELISA quantification of α-Synuclein in the α-Synuclein transgenic animals: Brain homogenate was centrifuged and the supernatant saved as fraction F1. The pellet was washed then resuspended and saved as fraction F2. Plates (Nunc, 464718) were coated with SYN-1 (1:1000, BD Transduction Labs, 610787). Monomeric recombinant α-synuclein was included as an internal standard. Biotinylated antibody FL-140 (1:300, Santa Cruz Biotechnology, sc-10717-B) and ExtrAvidin-Alkaline phosphatase (3:5000, Sigma, E2636) was added followed by pNPP substrate solution (Sigma, N1891). Raw absorbance (405 nm) was then normalized to the total protein concentration of each sample. In the APP/PS1 transgenic animal, brains were homogenized and the supernatant, Faction 1, was separated from the pellet. The pellets were further processed with addition of NP40 and Triton X-100. The supernatant was separated from the pellet as the insoluble membrane, Fraction 2, and was dissolved in 8M Guanidine. To quantify the amount of human Aβ-40 and Aβ-42, ELISA kits were used (The Genetics Company, Zurich, Switzerland).
In FIG. 2 is shown efficacy data for LNK-754-TS in the Masliah D-line transgenic α-synuclein mouse (an accepted model of synucleinopathies). Two trials are shown, the first (FIG. 2A) at higher doses of LNK-754-TS: 45 mg/kg and 9 mg/kg. […] The second trial (FIG. 2B) explores the low dose range for efficacy in the α-synuclein models. […]
After dosing with LNK-754-TS for three months (twice daily at 0.09 mg/kg or 0.9 mg/kg), α-synuclein accumulation in the brain was analyzed by immunohistochemical (human specific α-synuclein immunoreactivity) and biochemical (α-synuclein ELISA) means. […]

The mark [5] stands for this setting: three-month dosing trial (FIG. 9c).
Setting [6] is: twice daily at 0.09 mg/kg or 0.9 mg/kg, three months.

Each structure is given as a SMILES string. Entries after “also recorded” stand apart in the source; their conditions may differ.

In the case of `C#Cc1cccc(-c2cc(=O)n(C)c3ccc([C@](O)(c4ccc(Cl)cc4)c4cncn4C)cc23)c1` [LNK-754-TS, (R)-6-[(4-chlorophenyl)-hydroxyl-(1-methyl-1-H-imidazol-5-yl)-methyl]-4-(3-ethynylphenyl)-1-methyl-2-(1H)-quinonlinone (2S,3S)-dihydroxybutanedioate], in data set [1], the “effect on Ras farnesylation in brain” value is on record as “no significant effect” and the “soluble Ras/actin level in cortex vs. vehicle” value is recorded as “No significant differences”. Also, in data set [2], the “dose required for suppression of tumor growth” value is listed as “at least 25 mg per kg”. For the same molecule, the “cognitive performance in Morris water maze vs. vehicle” value in data set [3] (12 days) is on record as “significant cognitive improvement”. Further, in data set [3] (two months), the “cognitive performance in Morris water maze vs. vehicle” value is reported as “performed significantly better; also recorded: significant cognitive improvement”. In addition, the “α-synuclein deposition in cortex and hippocampus” value in data set [4] (0.09 mg/kg twice every 24 hr) was “halts deposition”. Moreover, the “α-synuclein deposition in cortex and hippocampus” value in data set [4] (0.9 mg/kg twice every 24 hr) is listed as “halts deposition”. Moreover, the “cortical α-synuclein immunoreactivity vs. baseline and vehicle” value in data set [4] (2 mg/kg once every 72 hr, three months (FIG. 9b)) is “significantly lower; also recorded: significantly reduces”. Further, the “number of α-synuclein positive neurons in the brain” value in data set [4] (9 mg/kg PO BID 3 months) is “significant reduction”. Moreover, the “number of α-synuclein IR cells in the hippocampus vs. saline” value in data set [4] (9 mg/kg group, PO BID 3 months, lower-dose trial (FIG. 2B)) was “significance level was not reached”. For the same molecule, the “number of α-synuclein positive neurons in the brain” value in data set [4] (45 mg/kg PO BID 3 months) was “not significantly effective”. In addition, the “efficacious dose in the α-synuclein transgenic mouse” value in data set [4] (PO BID 3 months) is at most 9 mg/kg. Also, the “number of α-synuclein IR cells in the hippocampus vs. saline” value in data set [4] (all applied dosages except 9 mg/kg, PO BID 3 months (FIG. 2B)) is given as “significant decrease”. In data set [4] (setting [5]), the “effect on neuronal architecture (NeuN)” value was “lack of effect” and the “reduction of α-synuclein immunoreactivity, representative hippocampal slices” value was “ca. 50%”. In addition, in data set [4] (setting [6]), the “astrocytosis: GFAP staining” value is recorded as “unchanged”; the drug-dependent toxicity result is given as “None of the treated animals showed any evidence”; the “neuronal loss: NeuN staining and brain volume” value is listed as “unchanged”; the “synaptic damage: synaptophysin staining” value is listed as “unchanged”. In data set [4] (setting [6]), the “α-synuclein accumulation in the brain (immunoreactivity and ELISA)” value is “clearly reduced”.
